Results published in article PMC6325233, “A Novel Actin Binding Drug with In Vivo Efficacy” (Antimicrobial Agents and Chemotherapy, 2018).
“Also recorded” adds a separate entry of the source. Where two headings read alike, the source gives them in different places.

Assays:
[1] = tested on: Schizosaccharomyces pombe; assay: Intracellular localization and competition, fluorescence microscopy; assay type: cell-based; details: pretreatment with 1× MIC native occidiofungin
Method: (§1) S. pombe and S. cerevisiae cells (OD600 of 0.6 to 0.8) were incubated with 1× MIC of alkyne-OF at 30°C, with samples removed at 10, 30, and 60 min postincubation. The cells were washed in PBS and fixed with 3.7% formaldehyde. The cells were permeabilized by adding 0.5% Triton X-100. The cells were washed with PBS before the Click reaction with azide-derivatized Alexa Fluor 488 (Click-iT EdU imaging kit; Thermo Fisher Scientific). The cells were visualized with an Olympus FV1000 confocal microscope. A competition assay was carried out by pretreating cells with 1× MIC of the native occidiofungin followed by treatment with alkyne-OF. […] A 6.6 µM concentration of tetramethyl rhodamine isothiocyanate (TRITC)-tagged phalloidin was added to formaldehyde-fixed cells (permeabilized with 0.2% Triton X-100) for 30 min at room temperature. The cells were washed in PBS, added to a concanavalin A-treated glass slides, and overlaid with Vectashield plus DAPI. Images were viewed using a Nikon 50i fluorescence microscope with a 100× oil immersion objective and Texas Red and DAPI filter sets. Random images were captured using a Retiga EXi black and white charge-coupled-device (CCD) camera and Image Q software. All images were captured using the same exposure settings, with the image contrast altered postcapture using CorelDraw.

[2] = tested on: rabbit skeletal muscle filamentous actin; assay: In vitro actin filament microscopy; assay type: biochemical; details: 24 μg actin with 4 or 8 μg native occidiofungin (8 μg alkyne-OF), 15 min
Method: Purified rabbit skeletal muscle filamentous actin (catalog number AKF99) and G-actin (catalog number AKL95) were purchased from Cytoskeleton, Inc. Actin was reconstituted in Milli-Q water to achieve a stock concentration of 0.4 mg/ml in a buffer that consisted of 5 mM Tris-HCl (pH 8.0), 0.2 mM CaCl2, 0.2 mM ATP, 2 mM MgCl2, and 5% (wt/vol) sucrose as directed by the supplier. This solution was stored at −80°C in 50-μl aliquots until use. Immediately before use, each aliquot was thawed by placing it in a 37°C water bath for 5 min and then at room temperature. For all studies, 24 μg of F- or G-actin was used with 8 μg alkyne-OF. F-actin filaments were reacted with native occidiofungin for 15 min at room temperature at molar ratios of 1:10 (24 μg actin to 8 μg native occidiofungin) and 1:5 (24 μg actin to 4 μg native occidiofungin). As per the manufacturer’s instructions, Acti-stain 670 phalloidin (Cytoskeleton, Inc.) was used as a control in an in vitro actin filament binding study. Actin filaments treated with DMSO (solvent blank negative control) were stained and observed for comparison. The actin filaments were visualized on an Olympus FV1000 confocal microscope. Pulldown assays were performed using alkyne-OF with azide-biotin (Click-iT protein reaction buffer kit; Thermo Fisher Scientific), according to the manufacturer’s instructions. […]

Candida glabrata 27243 = assay: MIC susceptibility testing (fluconazole-resistant strain); assay type: cell-based; set-up: key to MIC, 50% inhibition: -: indicates absence of isolates with 50% inhibition endpoint; details: CLSI M27-A3
Method: (§2) Occidiofungin was purified from a liquid culture of Burkholderia contaminans MS14 as previously described ([21]). MIC susceptibility testing was performed according to the CLSI M27-A3 and M38-A2 standards for the susceptibility testing of yeasts and filamentous fungi, respectively. S. cerevisiae deletion mutants were obtained from the commercially available BY4741 deletion library (Thermo Scientific).

Candida albicans 23512 = assay: as above; assay type: cell-based; set-up: key to MIC, 50% inhibition: -: indicates absence of isolates with 50% inhibition endpoint; details: CLSI M27-A3
Method: as §2

cancer cell lines = details: several cancer cell lines vs human fibroblast control; cited from earlier work
Method: Natural products with in vitro antifungal properties that target the actin cytoskeleton were previously reported ([51]). […] Occidiofungin, on the other hand, is well tolerated at 5 mg/kg or 20 mg/kg when administered intravenously or subcutaneously, respectively ([22], [25]). This dose is much higher than the MIC of occidiofungin against several fungal pathogens. ...

[3] = tested on: S. cerevisiae (diploid, BY4743) actin cables; assay: Actin cable visualization, TRITC-labeled phalloidin; assay type: cell-based; details: for Cells without actin cables, Avg / Cells with actin cables, Avg: average of two replicates; for Cells without actin cables, Avg: untreated 25.87; for Cells with actin cables, Avg: untreated 74.13
Method: as §1

[4] = tested on: Trichophyton mentagrophytes 10207; assay: MIC susceptibility testing (itraconazole-resistant strain); assay type: cell-based; details: CLSI M38-A2; 96 hours
Method: as §2

F-actin = assay: Actin polymerization and depolymerization assays; assay type: biochemical; details: 20 μg occidiofungin in 20 μL of 1.5% β-cyclodextrin in PBS, pyrene actin
[5] = tested on: Candida parapsilosis 2006; assay: MIC susceptibility testing (caspofungin-resistant strain); assay type: cell-based; set-up: key to MIC, 50% inhibition: -: indicates absence of isolates with 50% inhibition endpoint; details: CLSI M27-A3
Method: as §2

[6] = tested on: Cryptococcus neoformans 19526; assay: as above; assay type: cell-based; set-up: key to MIC, 50% inhibition: -: indicates absence of isolates with 50% inhibition endpoint; details: CLSI M27-A3; 72 hours
Method: as §2

Candida krusei 28415 = assay: MIC susceptibility testing (fluconazole-resistant strain); assay type: cell-based; details: CLSI M27-A3
Method: as §2

Substance: occidiofungin
- competition with alkyne-OF localization [1]: the observed cellular localization patterns disappeared; also recorded: does not bind
- effect on F-actin morphology [2]: the morphology of F-actin changed in the presence of occidiofungin in a dose-dependent manner
- effect on F-actin morphology ([2]; listed as native occidiofungin): a high degree of aggregation of the filaments
- MIC, 50% inhibition (Candida glabrata 27243; 24 hours): 2 µg/mL
- MIC, 100% inhibition (Candida glabrata 27243; 24 hours): 4 µg/mL
- MIC, 50% inhibition (Candida glabrata 27243; 48 hours): -
- MIC, 100% inhibition (Candida glabrata 27243; 48 hours): 4 µg/mL
- MIC, 50% inhibition (Candida albicans 23512; 24 hours): -
- MIC, 100% inhibition (Candida albicans 23512; 24 hours): 1 µg/mL
- MIC, 50% inhibition (Candida albicans 23512; 48 hours): -
- MIC, 100% inhibition (Candida albicans 23512; 48 hours): 2 µg/mL
- sensitivity of several cancer cell lines vs human fibroblast cell line (cancer cell lines): approximately 10 -fold
- Cells with actin cables, % [3]: 1.32%
- Cells without actin cables, Avg ([3]; 0.5X MIC, 30 min, SD 1.45): 97.66%
- Cells with actin cables, Avg ([3]; 0.5X MIC, 30 min, SD 1.45): 2.34%
- Cells without actin cables, % ([3]; 0.5X MIC, 30 min, replicate 1): 98.68%
- Cells with actin cables, % ([3]; 0.5X MIC, 30 min, replicate 2): 3.36%
- Cells without actin cables, % ([3]; 0.5X MIC, 30 min, replicate 2): 96.64%
- Cells without actin cables, Avg ([3]; 0.5X MIC, 60 min, SD 0.25): 99.82%
- Cells with actin cables, Avg ([3]; 0.5X MIC, 60 min, SD 0.25): 0.18%
- Cells with actin cables, % ([3]; 0.5X MIC, 60 min, replicate 1): 0%
- Cells without actin cables, % ([3]; 0.5X MIC, 60 min, replicate 1): 100%
- Cells with actin cables, % ([3]; 0.5X MIC, 60 min, replicate 2): 0.36%
- Cells without actin cables, % ([3]; 0.5X MIC, 60 min, replicate 2): 99.64%
- effect on actin organization ([3]; 0.5× MIC, 30 min): an accumulation of actin patches and/or aggregates of F-actin were observed throughout the treated cells with a concomitant loss of actin cables; also recorded: a loss of actin cables and the accumulation of actin aggregates
- MIC, 80% inhibition [4]: 1 µg/mL
- MIC, 100% inhibition [4]: 2 µg/mL
- effect on polymerization or depolymerization of F-actin (F-actin): no effect on the polymerization or depolymerization properties of F-actin
- MIC, 50% inhibition ([5]; 24 hours): 2 µg/mL
- MIC, 100% inhibition ([5]; 24 hours): 4 µg/mL
- MIC, 50% inhibition ([5]; 48 hours): -
- MIC, 100% inhibition ([5]; 48 hours): 4 µg/mL
- MIC, 50% inhibition [6]: -
- MIC, 100% inhibition [6]: 2 µg/mL
- MIC, 50% inhibition (Candida krusei 28415; 24 hours): 4 µg/mL
- MIC, 100% inhibition (Candida krusei 28415; 24 hours): 8 µg/mL
- MIC, 50% inhibition (Candida krusei 28415; 48 hours): 4 µg/mL
- MIC, 100% inhibition (Candida krusei 28415; 48 hours): 8 µg/mL
